Test results: PubChem BioAssay (NCI)
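Compound exposure: 48 hours, 5 concentrations, 96-well plates. TGI is the concentration that stops growth completely.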

What was measured:
Test in all cases: growth of human tumour cells (NCI), 48 h
[1] = tested on: OVCAR-5 ovarian
[2] = tested on: SK-MEL-2 melanoma
[3] = tested on: M14 melanoma
[4] = tested on: UO-31 renal
[5] = tested on: DMS 273 small cell lung
[6] = tested on: CCRF-CEM leukemia
[7] = tested on: SNB-19 CNS
[8] = tested on: HCT-116 colon
[9] = tested on: UACC-257 melanoma
[10] = tested on: SNB-78 CNS
[11] = tested on: K-562 leukemia
[12] = tested on: HL-60(TB) leukemia
[13] = tested on: SR leukemia
[14] = tested on: A498 renal
[15] = tested on: SF-295 CNS
[16] = tested on: SK-MEL-28 melanoma
[17] = tested on: MOLT-4 leukemia
[18] = tested on: MALME-3M melanoma
[19] = tested on: OVCAR-4 ovarian
[20] = tested on: KM12 colon
[21] = tested on: SK-MEL-5 melanoma
[22] = tested on: LOX IMVI melanoma
[23] = tested on: LXFL 529 NSCLC
[24] = tested on: OVCAR-8 ovarian
[25] = tested on: U251 CNS
[26] = tested on: NCI-H522 lung
[27] = tested on: TK-10 renal
[28] = tested on: HT29 colon
[29] = tested on: DMS 114 small cell lung
[30] = tested on: NCI-H460 lung
[31] = tested on: HOP-62 NSCLC
[32] = tested on: XF 498 CNS
[33] = tested on: NCI-H23 lung
[34] = tested on: RXF 393 renal
[35] = tested on: DLD-1 colon
[36] = tested on: SN12C renal
[37] = tested on: RPMI-8226 leukemia
[38] = tested on: CAKI-1 renal
[39] = tested on: M19-MEL melanoma
[40] = tested on: ACHN renal
[41] = tested on: UACC-62 melanoma
[42] = tested on: COLO 205 colon
[43] = tested on: SK-OV-3 ovarian
[44] = tested on: SF-268 CNS
[45] = tested on: NCI-H226 lung
[46] = tested on: KM20L2 colon
[47] = tested on: HOP-18 NSCLC
[48] = tested on: SW-620 colon
[49] = tested on: HCT-15 colon
[50] = tested on: EKVX NSCLC
[51] = tested on: SNB-75 CNS
[52] = tested on: 786-0 renal
[53] = tested on: A549 NSCLC
[54] = tested on: OVCAR-3 ovarian
[55] = tested on: HOP-92 NSCLC
[56] = tested on: SF-539 CNS
[57] = tested on: IGROV1 ovarian
[58] = tested on: HCC-2998 colon

For Clc1ccccc1C(n1cc(Br)cn1)n1cc(Br)cn1, the TGI [1] was 49 µM, the TGI [2] was 45.6 µM and the TGI [3] was 36.9 µM. For the same compound, the TGI [4] was 32.6 µM, the TGI [5] was 53 µM and the TGI [6] was 93.1 µM. It also gave a TGI [7] of over 100 µM, a TGI [8] of 42.9 µM and a TGI [9] of 31.7 µM. For the same compound, the TGI [10] was over 100 µM, the TGI [11] was over 100 µM and the TGI [12] was 44.6 µM. The TGI [13] was 92.9 µM, the TGI [14] was 35.9 µM and the TGI [15] was 43.1 µM. The TGI [16] was over 100 µM, the TGI [17] was 39.2 µM and the TGI [18] was 46.9 µM. It also gave a TGI [19] of over 100 µM, a TGI [20] of 40.8 µM and a TGI [21] of 23.1 µM. It also gave a TGI [22] of 31.2 µM, a TGI [23] of over 100 µM and a TGI [24] of 55.1 µM. The TGI [25] was over 100 µM, the TGI [26] was over 100 µM and the TGI [27] was over 100 µM. For the same compound, the TGI [28] was 29 µM, the TGI [29] was 56 µM and the TGI [30] was 28.1 µM. For the same compound, the TGI [31] was 57.9 µM, the TGI [32] was 40.6 µM and the TGI [33] was over 100 µM. The TGI [34] was 34.4 µM, the TGI [35] was 54 µM and the TGI [36] was 30.6 µM. For the same compound, the TGI [37] was 46.3 µM, the TGI [38] was over 100 µM and the TGI [39] was 34.5 µM. The TGI [40] was 55.2 µM.

Compound O=C1CCCCC/C=C2/CC[C@H](Sc3ccccc3)[C@@H]12 has a TGI [2] of over 100 µM, a TGI [3] of over 100 µM and a TGI [4] of over 100 µM. The TGI [41] was over 100 µM, the TGI [42] was over 100 µM and the TGI [43] was over 100 µM. It also gave a TGI [5] of over 100 µM, a TGI [6] of over 100 µM and a TGI [7] of over 100 µM. For the same compound, the TGI [44] was over 100 µM, the TGI [8] was over 100 µM and the TGI [9] was over 100 µM. The TGI [10] was over 100 µM, the TGI [11] was over 100 µM and the TGI [45] was over 100 µM. For the same compound, the TGI [12] was over 100 µM, the TGI [13] was over 100 µM and the TGI [46] was over 100 µM. It also gave a TGI [15] of over 100 µM, a TGI [47] of over 100 µM and a TGI [16] of over 100 µM. For the same compound, the TGI [17] was over 100 µM, the TGI [18] was over 100 µM and the TGI [48] was over 100 µM. It also gave a TGI [49] of over 100 µM, a TGI [50] of over 100 µM and a TGI [19] of over 100 µM. For the same compound, the TGI [20] was over 100 µM, the TGI [21] was over 100 µM and the TGI [22] was over 100 µM. The TGI [23] was over 100 µM, the TGI [24] was over 100 µM and the TGI [51] was over 100 µM. It also gave a TGI [25] of over 100 µM, a TGI [52] of over 100 µM and a TGI [27] of over 100 µM. It also gave a TGI [53] of over 100 µM, a TGI [28] of over 100 µM and a TGI [29] of over 100 µM. For the same compound, the TGI [30] was over 100 µM, the TGI [31] was over 100 µM and the TGI [32] was […]. For the same compound, the TGI [33] was over 100 µM, the TGI [34] was over 100 µM and the TGI [36] was over 100 µM. For the same compound, the TGI [37] was over 100 µM, the TGI [39] was over 100 µM and the TGI [40] was over 100 µM.

CC(C)c1cc(C(C)C)c(S(=O)(=O)NN)c(C(C)C)c1 showed a TGI [1] of over 100 µM, a TGI [2] of over 100 µM and a TGI [41] of over 100 µM. The TGI [42] was over 100 µM, the TGI [5] was over 100 µM and the TGI [7] was over 100 µM. The TGI [44] was over 100 µM, the TGI [54] was over 100 µM and the TGI [55] was over 100 µM. The TGI [8] was over 100 µM, the TGI [9] was over 100 µM and the TGI [10] was over 100 µM. The TGI [11] was over 100 µM, the TGI [13] was over 100 µM and the TGI [56] was over 100 µM. For the same compound, the TGI [46] was over 100 µM, the TGI [14] was over 100 µM and the TGI [57] was over 100 µM. The TGI [15] was over 100 µM, the TGI [47] was over 100 µM and the TGI [16] was over 100 µM. For the same compound, the TGI [18] was over 100 µM, the TGI [48] was over 100 µM and the TGI [49] was over 100 µM. For the same compound, the TGI [50] was over 100 µM, the TGI [19] was over 100 µM and the TGI [20] was over 100 µM. For the same compound, the TGI [21] was over 100 µM, the TGI [22] was over 100 µM and the TGI [24] was over 100 µM. The TGI [51] was over 100 µM, the TGI [25] was over 100 µM and the TGI [52] was over 100 µM. The TGI [27] was over 100 µM, the TGI [53] was over 100 µM and the TGI [28] was over 100 µM. For the same compound, the TGI [29] was over 100 µM, the TGI [30] was over 100 µM and the TGI [31] was over 100 µM. The TGI [33] was over 100 µM, the TGI [34] was over 100 µM and the TGI [35] was over 100 µM. The TGI [36] was over 100 µM, the TGI [37] was over 100 µM and the TGI [38] was over 100 µM. For the same compound, the TGI [39] was over 100 µM and the TGI [40] was over 100 µM.

For COc1ccc(/C=C2\N=C(c3ccccc3)OC2=O)c(OCc2ccccc2)c1, the TGI [1] was over 100 µM, the TGI [58] was over 100 µM and the TGI [3] was over 100 µM. For the same compound, the TGI [4] was over 100 µM, the TGI [41] was 50 µM and the TGI [42] was over 100 µM. For the same compound, the TGI [5] was over 100 µM, the TGI [6] was 50.2 µM and the TGI [7] was 94.3 µM. The TGI [44] was over 100 µM, the TGI [54] was 48.4 µM and the TGI [8] was over 100 µM. The TGI [11] was over 100 µM, the TGI [45] was over 100 µM and the TGI [12] was over 100 µM. For the same compound, the TGI [13] was over 100 µM, the TGI [56] was 46.6 µM and the TGI [46] was over 100 µM. It also gave a TGI [14] of 68.5 µM, a TGI [57] of 64.4 µM and a TGI [15] of 38.6 µM. The TGI [47] was over 100 µM, the TGI [16] was over 100 µM and the TGI [17] was 80.6 µM. For the same compound, the TGI [18] was over 100 µM, the TGI [48] was over 100 µM and the TGI [50] was over 100 µM. The TGI [19] was 47.7 µM, the TGI [20] was over 100 µM and the TGI [21] was 52.2 µM. For the same compound, the TGI [22] was over 100 µM, the TGI [23] was over 100 µM and the TGI [24] was 72 µM. It also gave a TGI [26] of 67.2 µM, a TGI [52] of 34.8 µM and a TGI [53] of over 100 µM. It also gave a TGI [29] of 92.3 µM, a TGI [30] of over 100 µM and a TGI [31] of 45.2 µM. It also gave a TGI [35] of 77.2 µM, a TGI [36] of over 100 µM and a TGI [37] of over 100 µM. For the same compound, the TGI [38] was over 100 µM, the TGI [39] was over 100 µM and the TGI [40] was over 100 µM.

Compound CN(C)c1nc(N(C)C)nc(N(C)CN(C)c2ccccc2)n1 has a TGI [2] of over 100 µM, a TGI [58] of over 100 µM and a TGI [4] of over 100 µM. For the same compound, the TGI [41] was over 100 µM, the TGI [43] was over 100 µM and the TGI [6] was over 100 µM. It also gave a TGI [7] of over 100 µM, a TGI [44] of over 100 µM and a TGI [54] of over 100 µM. For the same compound, the TGI [8] was over 100 µM, the TGI [9] was over 100 µM and the TGI [10] was over 100 µM. It also gave a TGI [11] of over 100 µM, a TGI [45] of over 100 µM and a TGI [12] of over 100 µM. For the same compound, the TGI [56] was over 100 µM, the TGI [57] was over 100 µM and the TGI [15] was over 100 µM. For the same compound, the TGI [47] was over 100 µM, the TGI [16] was over 100 µM and the TGI [17] was over 100 µM. For the same compound, the TGI [18] was over 100 µM, the TGI [49] was over 100 µM and the TGI [19] was over 100 µM. It also gave a TGI [20] of over 100 µM, a TGI [21] of over 100 µM and a TGI [22] of over 100 µM. It also gave a TGI [23] of over 100 µM, a TGI [24] of over 100 µM and a TGI [51] of over 100 µM. The TGI [25] was over 100 µM, the TGI [26] was over 100 µM and the TGI [27] was over 100 µM. For the same compound, the TGI [53] was over 100 µM, the TGI [28] was over 100 µM and the TGI [29] was over 100 µM. The TGI [30] was over 100 µM, the TGI [32] was over 100 µM and the TGI [33] was over 100 µM. The TGI [34] was over 100 µM, the TGI [36] was over 100 µM and the TGI [39] was over 100 µM. The TGI [40] was over 100 µM.
